Assay results: US20080260695A1, “Composition for prevention and/or treatment of cancer” (MICROBIO COMPANY LTD., priority 2007, published 2008)

System: colorectal cancer cell (HT-29)
Assay: MTT assay, relative survival rate of colorectal cancer cell line
Type: cell-based
Details: HT-29, 24 hours, control 100%
Procedure: The six components (fermented soy extract (Microbio Biotechnology®), oligomeric proanthocyanidin, epigallocatiechin gallate, spirulina, curcumin, and Antrodia camphorata) of Example 1 were classified to seven groups; the content of each group is listed in Table 2. Each group was respectively diluted 300×, 600×, 1200×, and 2400× with McCoy's 5a medium, and then colorectal cancer cell (HT-29, 80000 cell/well) line was treated with the diluted group A to group G. After 24 hours, the relative survival rates of the colorectal cancer cell line were detected by MTT assay. In a control group, the relative survival rate was 100%.

[1] = 300 × dilution in McCoy's 5a medium
[2] = 600 × dilution in McCoy's 5a medium
[3] = 1200 × dilution in McCoy's 5a medium
[4] = 2400 × dilution in McCoy's 5a medium

Compound: epigallocatiechin gallate [Group B]
- Relatively survival rate (%) [1]: 23%
- Relatively survival rate (%) [2]: 50%
- Relatively survival rate (%) [3]: 66%
- Relatively survival rate (%) [4]: 81%

Compound: COc1cc(/C=C/C(=O)CC(=O)/C=C/c2ccc(O)c(OC)c2)ccc1O [Group C, curcumin]
- Relatively survival rate (%) [1]: 18%
- Relatively survival rate (%) [2]: 31%
- Relatively survival rate (%) [3]: 45%
- Relatively survival rate (%) [4]: 71%
